Source: US20070155720A1, “Co-administration of dopamine-receptor binding compounds” (DarPharma, Inc., priority 2003, published 2007)
Structures can show the parent of a compound that is named as a salt. Where two headings read alike, the source gives them in different places.

Key:
D1 receptor = D1 receptor (Homo sapiens, UniProt P21728); test: Affinity and selectivity for the D1 receptor stated in the description, no method given; format: binding; conditions: exemplary compounds, b98
D1 receptors = biological target: T1, D1 receptors (Rattus norvegicus, UniProt P18901); test: Affinity for D1 receptors in rat brain striatal homogenates labeled with 3H-SCH 23390; format: binding; conditions: for D1:D2 Selectivity: ratio of D2 to D1 affinity, rat striatal homogenates
T1 construct: utilizing rat brain striatal homogenates having D1 and D2 receptors; from tissue; host or cells: rat brain striatum homogenate

[1] = test system: rats with scopolamine-induced deficits; test: Passive avoidance in rats, scopolamine-induced amnesia; format: in vivo, rat; conditions: 3.0 mg/kg ip
Method: The protocol summarized below is one of many variants of the passive avoidance procedure using scopolamine-induced amnesia (for review see Rush, Behav Neural Biol 50:255-274, 1988). This procedure is commonly used to identify drugs that may be useful in treating cognitive deficits, particularly those observed in AD. The effects of the D
Testing was conducted in standard 2-compartment rectangular passive avoidance chambers (San Diego Instruments, San Diego, Calif.) with black plexiglas sides and grid floors. The light compartment of the chambers were illuminated by a 20 W lamp located in this compartment; the dark side of the chambers will be shielded from light, except for light penetrating the opening connecting the two compartments of each chamber.
On training day, groups of 8 rats were injected with scopolamine (3.0 mg/kg, ip) or vehicle (1.0 ml/kg) 30 min prior to training. Scopolamine served as the dementing agent in this experiment. Ten min prior to training, each group of rats received a second injection of vehicle or a dose of DHX. At the end of the pretreatment interval, each rat was placed individually in the light compartment facing away from the opening between compartments. The latency for each rat to travel from the light to the dark compartment was measured up to a maximum of 300 sec; any animal not entering the dark compartment within 300 sec was discarded from the test group. Once the animal entered the dark compartment completely, a 1.0 milliampere, 3.0 sec scrambled shock was delivered to the entire grid floor. The animal was allowed to remain in the dark compartment during this 3.0 sec period or to escape to the light compartment. Each rat was then returned immediately to its home cage.
Twenty-four hr after training, each rat was tested in the same apparatus for retention of the task (to remain passively in the light compartment). […] The latency for animals to enter the dark compartment on test day (step-through latency) was recorded up to a maximum of 600 sec. Each animal was used only once in a single experiment.
A one-way analysis of variance (ANOVA) and Newman-Keuls post-hoc comparisons were used to identify significant deficits in passive avoidance responding produced by scopolamine and their reversal by DHX; a p value of less than 0.05 was used as the level of significance.

D4 receptor [2] = biological target: T2, D4 receptor (Rattus norvegicus, UniProt P30729); test: Inhibition of forskolin-stimulated adenylate cyclase through D4 receptors in CHO cells; format: cell-based
T2 sequence (P30729 1-387): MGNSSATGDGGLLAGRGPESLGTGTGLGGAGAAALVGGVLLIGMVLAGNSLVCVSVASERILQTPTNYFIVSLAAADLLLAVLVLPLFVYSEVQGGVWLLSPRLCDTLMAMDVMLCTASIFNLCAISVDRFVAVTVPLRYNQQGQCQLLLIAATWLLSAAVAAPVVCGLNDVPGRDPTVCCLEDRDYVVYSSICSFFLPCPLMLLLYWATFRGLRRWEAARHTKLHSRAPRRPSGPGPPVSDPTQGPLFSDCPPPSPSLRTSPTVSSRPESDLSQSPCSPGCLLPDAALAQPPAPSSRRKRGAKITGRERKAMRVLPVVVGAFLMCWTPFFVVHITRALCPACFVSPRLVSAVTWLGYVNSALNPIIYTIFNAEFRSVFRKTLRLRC

[3] = test system: adenylate cyclase in rat brain striatum; test: Activation of adenylate cyclase in rat brain striatum; format: biochemical; conditions: compared with dopamine
D2L receptors = D2L receptors (Homo sapiens, UniProt P14416); test: Inhibition of forskolin-stimulated adenylate cyclase through D2L receptors in CHO cells; format: cell-based; conditions: compared with quinpirole
[4] = Half-life and duration of functional activity; format: in vivo
D4 receptor [5] = biological target: T2, D4 receptor; test: Binding, cloned D4 receptor in CHO cells; parameters: expressed in transfected cells; host or cells: CHO cells; conditions: read-out: Cloned Receptors D4 CHO (rat)
dopamine D1 receptor = dopamine D1 receptor (Homo sapiens, UniProt P21728); test: D1 activity of hexahydrobenzo[a]phenanthridines, structure-activity statements; conditions: relative to dihydrexidine
monkeys = conditions: aged and reserpine-treated monkeys; cited from earlier work
D2 receptor = D2 receptor (Homo sapiens, UniProt P14416); test: D2 potency of substituted hexahydrobenzo[a]phenanthridines, structure-activity statement; conditions: relative to dihydrexidine
Sequence of D2 receptor (P14416 whole entry): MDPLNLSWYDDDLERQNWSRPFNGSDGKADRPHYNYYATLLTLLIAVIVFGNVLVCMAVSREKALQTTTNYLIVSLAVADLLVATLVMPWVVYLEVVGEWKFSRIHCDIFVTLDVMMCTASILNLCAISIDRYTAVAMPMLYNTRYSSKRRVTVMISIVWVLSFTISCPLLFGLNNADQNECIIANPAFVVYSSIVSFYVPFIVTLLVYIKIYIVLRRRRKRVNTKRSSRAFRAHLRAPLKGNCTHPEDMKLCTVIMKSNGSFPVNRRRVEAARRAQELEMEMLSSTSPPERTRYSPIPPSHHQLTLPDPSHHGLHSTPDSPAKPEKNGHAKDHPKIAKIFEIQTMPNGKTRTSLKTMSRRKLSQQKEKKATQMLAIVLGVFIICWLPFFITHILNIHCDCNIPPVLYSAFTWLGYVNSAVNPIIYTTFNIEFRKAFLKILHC

T1 sequence (P18901 whole entry): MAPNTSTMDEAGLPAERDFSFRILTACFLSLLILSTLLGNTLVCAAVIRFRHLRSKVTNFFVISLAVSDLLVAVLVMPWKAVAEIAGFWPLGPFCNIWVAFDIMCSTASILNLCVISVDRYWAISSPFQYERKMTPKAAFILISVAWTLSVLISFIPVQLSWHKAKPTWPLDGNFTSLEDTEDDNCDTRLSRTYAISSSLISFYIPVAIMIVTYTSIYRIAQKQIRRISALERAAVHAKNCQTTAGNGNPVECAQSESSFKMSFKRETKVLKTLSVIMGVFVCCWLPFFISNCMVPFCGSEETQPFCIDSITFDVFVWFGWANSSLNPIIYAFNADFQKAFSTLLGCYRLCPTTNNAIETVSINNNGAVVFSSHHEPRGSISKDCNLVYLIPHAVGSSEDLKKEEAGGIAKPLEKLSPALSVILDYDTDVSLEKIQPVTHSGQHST
Sequence of dopamine D1 receptor (P21728 whole entry): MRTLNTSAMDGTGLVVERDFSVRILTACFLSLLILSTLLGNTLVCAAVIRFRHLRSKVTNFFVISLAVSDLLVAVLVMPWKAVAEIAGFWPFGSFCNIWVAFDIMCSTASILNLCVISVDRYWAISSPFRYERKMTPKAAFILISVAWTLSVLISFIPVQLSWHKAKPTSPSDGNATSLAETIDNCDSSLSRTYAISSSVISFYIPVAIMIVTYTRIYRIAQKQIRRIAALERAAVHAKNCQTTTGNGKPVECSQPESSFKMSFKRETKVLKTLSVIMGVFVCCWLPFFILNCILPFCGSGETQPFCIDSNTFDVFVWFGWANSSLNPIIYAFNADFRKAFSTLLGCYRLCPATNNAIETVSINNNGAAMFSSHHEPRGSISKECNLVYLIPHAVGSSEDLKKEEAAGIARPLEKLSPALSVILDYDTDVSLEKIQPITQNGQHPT
Sequence of D1 receptor (P21728 whole entry): as above
Sequence of D2L receptors (P14416 whole entry): as the sequence (P14416 whole entry) above

Oc1ccc2c(c1O)Cc1cccc3c1C2CNC3 (centres unmarked) (as salt: hydrobromid) [Compound 29, 8,9-Dihydroxy-2,3,7,11b-tetrahydro-1H-napth[1,2,3-de]isoquinoline]
melting point: 258 °C (dec.)

CCCN1Cc2cccc3c2C(C1)c1ccc(O)c(O)c1O3 (centres unmarked) [Compound 16c, N-propyl-8,9-dihydroxy-1,2,3,11b-tetrahydrochromeno[4,3,2-de]isoquinoline]
melting point: 259 to 264 °C (dec.)

C=CCN1Cc2cccc3c2C(C1)c1ccc(O)c(O)c1O3 (centres unmarked) [Compound 16b, N-allyl-8,9-dihydroxy-1,2,3,11b-tetrahydrochromeno[4,3,2-de]isoquinoline]
melting point: 251 to 253 °C (dec.)

Br.Oc1ccc2c(c1O)Oc1cccc3c1C2CNC3 (centres unmarked) [Compound 16a, 8,9-dihydroxy-1,2,3,11b-tetrahydrochromeno[4,3,2-de]isoquinoline hydrobromide]
D1:D2 selective (D1 receptor): equally high affinity for both receptor subtypes
melting point: 298 to 302 °C (dec.)

Cl.Oc1cc2c(cc1O)[C@@H]1c3cc(Cc4ccccc4)ccc3CN[C@H]1CC2 (relative stereo) [Compound 6e, Trans-2-benzyl-10,11-dihydroxy-5,6,6a,7,8,12b-hexahydrobenzo[a]phenanthridine hydrochloride]
Ki (D1 receptors; rat brain striatal homogenates, 3H-SCH 23390, read-out: D1 Affinity): 290 nM
D1:D2 Selectivity (D1 receptors): 0.6

CN1[C@@H]2C[C@@H](OC(=O)[C@H](CO)c3ccccc3)C[C@H]1[C@@H]1O[C@@H]12 [Scopolamine, reference compound]
Acquisition of the passive avoidance task [1]: severe deficit

NCCc1ccc(O)c(O)c1 [dopamine]
EC50 (D4 receptor [2]; read-out: EC50 (nM) ± SEM, D4, inhibition of forskolin-stimulated AC, mean ± SEM, at least three experiments): 1750 ± 682 nM

Oc1ccc2c(c1O)Cc1cccc3c1C2CNC3 (centres unmarked) [Compound 29, 8,9-Dihydroxy-2,3,7,11b-tetrahydro-1H-napth[1,2,3-de]isoquinoline]
Effectiveness in activating adenylate cyclase [3]: as effective as dopamine
Effectiveness in activating adenylate cyclase when receptor reserve is reduced ([3]; receptor reserve reduced): as effective as dopamine
Agonist activity for inhibition of cAMP synthesis at D2L receptors (D2L receptors): full agonist
Agonist activity for inhibition of cAMP synthesis at D4 receptors (D4 receptor [2]): full agonist
EC50 (D4 receptor [2]; inhibition of forskolin-stimulated AC, mean ± SEM, at least three experiments, read-out: EC50 (nM) ± SEM, D4): 60 ± 18 nM
Duration of functional activity ([4]; in vivo): 7 to 10 h
half-life ([4]; serum, read-out: Serum half-life (converted)): 3 h
Ki (D4 receptor [5]): 60 nM

Cc1ccc2c(c1)[C@H]1c3cc(O)c(O)cc3CC[C@@H]1NC2.Cl (relative stereo) [Compound 6b, Trans-2-methyl-10,11-dihydroxy-5,6,6a,7,8,12b-hexahydrobenzo [a]phenanthridine hydrochloride]
D1 potency and efficacy (dopamine D1 receptor): comparable to dihydrexidine
melting point: 190 °C (dec.)

Cc1cccc2c1CN[C@H]1CCc3cc(O)c(O)cc3[C@H]21.Cl (relative stereo)
melting point: 195 °C (dec.)

Oc1cc2c(cc1O)C(c1ccccc1)CNCC2 (centres unmarked) [SKF 38393, reference compound]
Spatial working memory (monkeys): improved spatial working memory

Cc1ccc2c(c1)CN[C@H]1CCc3cc(O)c(O)cc3[C@H]21.Cl (relative stereo) [Compound 6c, Trans-3-methyl-10,11-dihydroxy-5,6,6a,7,8,12b-hexahydrobenzo[a]phenanthridine hydrochloride]
Ki (D1 receptors): 7 nM
D1:D2 Selectivity (D1 receptors): 6
D1 potency and efficacy (dopamine D1 receptor): comparable to dihydrexidine
D2 potency (D2 receptor): greater D2 potency
melting point: 190 °C (dec.)
